# Measurements: US11819492B2, “Natural product derivatives for inhibiting cellular necroptosis, ferroptosis and oxytosis” (Institut National de la Sante et de la Recherche Medicale …, priority 2016, dated 2023)
# How the values were obtained:
# [1] = tested on: rat embryonic myoblastic H9C2 cells; test: H2O2-induced necrosis, LDH release assay; format: cell-based; details: 10 μM, 2 hours pretreatment, 800 μM H2O2 for 24 hours, FIG. 17
# Procedure: The rat embryonic myoblastic H9C2 cells were cultured at 10,000 cells/well in 96-well-plates for 24 hours at 37° C./5% CO2. […] LB corresponds to cells treated with a lysis buffer (100% of cell death). Cell cytotoxicity was determined by a colorimetric assay quantitatively measuring lactate dehydrogenase (LDH) released […].
# [2] = tested on: Porcine LLC-PK1 cells (kidney proximal tubule cell line); test: Cold-induced cell death (cold storage), MTS viability assay; format: cell-based; details: 0.01-50.00 μM, 24 hours at 4° C., FIGS. 16a, 16b
# Procedure: At it was previously shown (Ahlenstiel et al. Transplantation […], 81(2), 231-239), cold storage induces a cell-death process. Porcine LLC-PK1 cells (kidney proximal tubule cell line) were stored at approximately 4° C. during 24 hours with or without the tested molecules. […] Cells were then incubated at 37° C., 5% CO2 before performing MTS viability assay. Cell viability was monitored using CellTiter 96® AQueous Non-Radioactive Cell Proliferation Assay (Promega, Fitchburg, WI, USA), based on the water-soluble tetrazolium compound MTS (3-[4,5-dimethylthiazol-2-yl]-5-[3-carboxymethoxy-phenyl]-2-[4-sulfophenyl]-2H-tetrazolium, inner salt) according to the manufacturers instructions.
# [3] = tested on: Human retinal pigment epithelial cell line, ARPE-19; details: 200 μM, Hanus et al. 2016; cited from earlier work
SMILES,protection from death induced by H2O2 (LDH release) [1],protection from death induced by cold storage [2],inhibition of NaIO3-induced necroptosis in retinal pigment epithelial cell line [3]
"CN1C(=O)NC(Cc2c[nH]c3c(Cl)cccc23)C1=O (stereo not drawn) [Nec-1s, Necrostatin-1s, reference compound]",less effective,inactive,–
CN1C(=O)C(Cc2c[nH]c3ccccc23)NC1=S (stereo not drawn) [necrostatin-1],–,–,inhibited
